Experimental findings from patent publication US4542153A, “Methods for changing calcium metabolism within the cells of a mammal” (The Ohio State University Research Foundation, priority 1983, dated 1985) are described below.

SMILES strings stand for the structures. Entries after “also recorded” stand apart in the source; their conditions may differ.

Data set [1] concerns chloroform anoxia arrhythmia in mice. Put plainly: Chloroform Anoxia Assay (chloroform-induced ventricular fibrillation). In kind it is in vivo, Female Swiss albino mice. Here is the method: The same four compounds were tested for their ability to protect mice from chloroform anoxia by the classical chloroform inhalation procedure described in Lawson J. W.: Antiarrhythmic activity of some isoquinoline derivatives determined by a rapid screening procedure in the mouse, J. Pharmacol. Exp. Ther. 160: 22-31, (1968). In this method, chloroform inhalation leading to respiratory arrest produces ventricular fibrillation. Female Swiss albino mice procured from Laboratory Supply Company, Indianapolis, Indiana, weighing 16-22 g, were pretreated intraperitoneally with the compound under test dissolved in a 5% dextrose solution 10 minutes before exposure to chloroform in a closed container containing chloroform-saturated cotton. The mice were removed from the chloroform atmosphere immediately after respiratory arrest and the electrocardiograph lead II monitored. The ED 50 and 95% confidence limits calculated for the anti-arrhythmic agents by the standard method of Litchfield and Wilcoxon.

Data set [2] relates to isolated left atria. Put plainly: Effects on isolated guinea pig atria: electrically driven left atria. In kind it is cell-based. An excerpt: (§1) The effects of pr-MDI, bu-MDI and Q-bu-MDI on the mechanical and electrical behavior of isolated guinea pig atria were investigated by the method of H. Nawrath, J. Pharmacol. Exp. Ther., 16, 176-182 (1980). The compounds were investigated over the concentration range of 10^-8 to 3×10^-4 M.
(§2) English short-haired guinea pigs, supplied by Carr Animal Supply, of Powell, Ohio, weighing 300-600 g. were killed by a blow on the head and both atria of the animal were quickly dissected out and suspended in a water-jacketed organ bath containing Krebs-Henseleit solution through which a 95% oxygen/5% carbon dioxide mixture was bubbled at 32° C. The solution contained 6.92 g/l of sodium chloride, 0.35 g/l of potassium chloride, 0.29 g/l of magnesium […] heptahydrate, 0.3 g/l of calcium chloride dihydrate, 0.16 g/l of potassium dihydrogen phosphate, 2.1 g/l of sodium bicarbonate and 2.1 g/l of dextrose. The contractile force generated by the isolated artria was recorded isometrically under a 500 mg. preload using a Narco Biosystems force transducer connected to a physiograph DMP-4B recorder, both the transducer and the recorder being obtained from E & M Instrument Co. of Houston, Texas.
The isolated left atria were electrically driven by square wave impulses of 3 milliseconds duration at a frequency of 3 Hz. and a voltage of twice the threshold voltage, delivered by a Grass S9 stimulator obtained from Grass Instrument Co., of Quincy, Massachusetts. Two platinum electrodes were used for the stimulation, the anode being in direct contact with the atrial tissue while the cathode had the form of a ring suspended 2.5 centimeters above the anode. Before redetermination of the threshold voltage and generation of a predrug (control) frequency-force profile over the range of 1-5 Hz., an equilibriation time of one hour was allowed. The system was then re-equilibriated at 3 Hz. and twice the threshold voltage as before, then one cumulative dose-response curve of contractile force for one test compound was obtained, followed immediately by redetermination of the threshold voltage and the generation of a post-drug frequency-force profile.
A paired Student's t-test was used to compare predrug and postdrug threshold voltages for each left atrial preparations as well as to compare developed tension at each frequency in the profile of each left atrial preparation. P values of less than 0.05 were considered statistically significant.

The subject of data set [3] is spontaneously beating right atria. The data set can be described thus: Effects on isolated guinea pig atria: spontaneously beating right atria. Format: cell-based.
Source text: as §1, §2
Spontaneously beating right atria were tested in a similar manner.

The subject of data set [4] is thoracic aorta strips contracted with potassium chloride. Put plainly: Vasodilator activity: potassium chloride-contracted aortic strips. In kind it is cell-based, male Sprague-Dawley rats. Particulars: rat aorta contracted with 40 mM potassium chloride; read-out: IC50 (mean and range of SEM) KCl. An excerpt: Pr-MDI, bu-MDI, Q-bu-MDI and the compounds of Formulae IIIA, IIIB and IVA having the two R1 groups together forming a methylene group, each R3 a methyl group and R2 an n-propyl group or n-butyl group (the compounds of Formula III are hereinafter abbreviated as sat-pr-MDI and sat-bu-MDI respectively, reference being made where necessary to the cis isomer of Formula III A or the trans isomer of Formula III B while the compounds of Formula IV are similarly referred to as cis sat-Q-pr-MDI and cis sat-Q-bu-MDI) were tested for vasodilator activity by the method of R. F. Furchgott and S. Bhadrakom, J. P. Pharmacol. Ex. Ther., 108, 129-143 (1953).
The vasodilator activity tests were conducted on male Sprague-Dawley rats, obtained from Harlan Industries, Inc., Cumberland, Indiana. The rats, weight 250-300 g., were sacrified by cervical dislocation and a 2.5 cm. segment of the thoracic aorta was removed and rinshed in physiological buffer. Each aortic segment was cleaned of connective tissue and cut spirally two yield to strips, each 3 by 15 mm. Each strip was mounted isometrically under a tension of 1 g in a 10 ml. tissue bath thermostatically maintained at 37° C. and containing a normal physiological solution aerated with a 95% oxygen/5% carbon dioxide mixture. Forces generated by the strip were monitored using a Grass FT03 isometric transducer coupled to a Grass module 7D polygraph recorder, both the transducer and the recorder being obtained from Grass Instrument Co., of Quincy, Mass.
After the aortic tissue had been allowed to equilibriate for 1-1.5 hours in the normal physiologic solution, tissue contraction was induced by introducing either 10^-7 M norepinephrine or 40mM potassium chloride buffer to the tissue bath.
To avoid interference by loss of tension due to time dependent tissue fatigue, separate preliminary experiments were performed to determine the degree of tissue relaxation due to such fatigue and the value of the control tension generated by norepinephrine or potassium chloride prior to the addition of the test compounds was adjusted whenever the duration of the experiment was such that fatigue could be expected to cause more than a 6% loss of tension. […] All concentrations mentioned hereinafter represent the final concentration of the test compound after dilution in the tissue bath.
The figures of concentration against percent response data obtained from each aortic tissue were transformed to its appropriate probit value and IC50 values were then estimated using linear regression analysis. The normal physiological solution contained 6.9 g/l of sodium chloride, 0.35 g/l of potassium chloride, 0.11 g/l of magnesium chloride hexahydrate, 0.138 g/l of sodium dihydrogen phosphate, 2.1 g/l of sodium bicarbonate, 0.01 g/l of EDTA, 0.368 g/l of calcium chloride dihydrate and 2.0 g/l of dextrose. The high potassium buffers were obtained by substituting potassium chloride for sodium chloride on an equimolar basis to maintain tonicity.

The ED50 is the dose that gives a 50% effect, or the effect in half of the subjects. Higher therefore signals a need for a large dose. Broadly, the IC50 is the concentration at which inhibition is half-maximal. On to `CCCCC1=Cc2cc3c(cc2C1[N+](C)(C)C)OCO3.[I-]` (stereo not drawn) [Q-bu-MDI, 2-Butyl-5,6-methylenedioxyindene-1-trimethylammonium iodide], for which the “Therapeutic Index (LD50/ED50)” value in data set [1] (ED50 from chloroform anoxia, LD50 i.p.) turned out to be 6.2. The compound also came in with an ED50 in data set [1] (i.p., 10 min before chloroform, table: mean values and 95% confidence limits, n = 40) of 10.5 mg/kg. The “ED50 compared with quinidine (statistical test)” value in data set [1] (i.p., p<<0.05) is recorded as “significantly smaller than that of quinidine”. In addition, in data set [1] (quinidine = 1.00, chloroform anoxia), the “Antiarrhythmic Potency” value was determined as 6.38. In addition, in data set [2] (3×10^-4 M), the “effect on frequency-force profile/relation of the stimulated left atrium” value is recorded as “no significant effect”, the “effect on the contractile force of left atrium at the highest concentration” value was “partially reversed” and the “effect on threshold voltage required to drive the atria” value was “no significant effect upon the threshold voltage”. For the same compound, the “dose-dependent decrease in the contractile force of the electrically stimulated left atrium” value in data set [2] (10^-4 M, 100 µM) was not above 20%. Further, in data set [2] (10^-8 to 3×10^-4 M), the “effect on contractile force of the electrically stimulated left atrium” value is recorded as “very modest; also recorded: much less than the other two compounds”; the “overall effect on mechanical and electrical behavior of atria” value is on record as “much smaller than that of bu-MDI or pr-MDI”. Moreover, the “persistent effects on frequency-force relation and threshold voltage” value in data set [2] (maximum concentration 3×10^-4 M) is recorded as “did not produce any persistent effects”. Also, in data set [3] (3×10^-4 M), the “effect on the contractile force of right atria at the highest concentration” value is listed as “positive inotropy”. Moreover, the “effect on spontaneous atrial rate” value in data set [3] (10^-8 to 3×10^-4 M) is listed as “only a slight decrease in the spontaneous atrial rate; also recorded: much less than the other two compounds”. Moreover, in data set [3] (except at 3×10^-4 M for Q-bu-MDI), the “effect on the contractile force of right atria” value was “minimal effects on the contractile force of right atria”. Moreover, in data set [4], the IC50 is 169 µM.
